Laboratory results as given in US9598396B2, “Tetrahydrophenanthridinones and tetrahydrocyclopentaquinolinones as PARP and tubulin polymerization inhibitors” (Janssen Pharmaceutica NV, priority 2008, dated 2017).

Legend:
TANK-2 enzyme = TANK-2 enzyme (Homo sapiens (Human), UniProt Q9H2K2); assay: In vitro Scintillation Proximity Assay (SPA) for TANK-2 inhibitory activity; assay type: biochemical; conditions: auto-poly(ADP-ribosyl)ation, [3H]-NAD+, Ni flash plates (96 or 384 well)
Method: C.2.In Vitro Scintillation Proximity Assay (SPA) for TANK-2 Inhibitory Activity
Compounds of the present invention were tested in an in vitro assay based on SPA technology with Ni Flash plates (96 or 384 well).
In principle, the assay relies upon SPA technology for the detection of auto-poly(ADP-ribosyl)ation of TANK-2 protein using [^3H]-nicotinamide adenine dinucleotide ([^3H]-NAD^+) as ADP-ribosyl donor.
A stock solution of 100 nM [^3H]-NAD^+/NAD (0.1 mCi/ml, supplier: Perkin Elmer) and 25 μM NAD (Sigma) was made in assay buffer (60 mM Tris/HCl, pH 7.4; 0.9 mM DTT; 6 mM MgCl2). The TANK-2 enzyme was produced as described in EP1238063. 60 μl of assay buffer, together with 1 μl of compound in DMSO, 20 μl of [^3H]-NAD^+/NAD and 20 μl of TANK-2 enzyme (final concentration 8 μg/ml) was added per well into a 96-well Ni-coated flash plate (Perkin Elmer). After incubation of the mixture for 120 minutes at room temperature, the reaction was terminated by adding 60 μl of stopsolution (42.6 mg NAD in 6 ml H2O). The plates were covered with a plate sealer and placed in a TopCountNXT™ (Packard) for scintillation counting. Values were expressed as counts per minute (cpm). For each experiment, controls (containing TANK-2 enzyme and DMSO without compound), a blank incubation (containing DMSO but no TANK-2 enzyme or compound) and samples (containing TANK-2 enzyme and compound dissolved in DMSO) were run in parallel. All compounds tested were dissolved and eventually further diluted in DMSO. In first instance, compounds were tested at a concentration of 10^−5M. […] In each test, the blank value was subtracted from both the control and the sample values. The control sample represented maximal TANK-2 enzyme activity. For each sample, the amount of cpm was expressed as a percentage of the mean cpm value of the controls. […] Herein the effects of test compounds are expressed as pIC50 (the negative log value of the IC50-value). As reference compounds, 3-aminobenzamide and 4-amino-1,8-naphtalimide were included to validate the SPA assay. Herein the assay was described using 96-well plates. In the assay using 384-well plates the same final concentrations were used and volumes were adapted.

Human PARP-1 enzyme = Human PARP-1 enzyme (Homo sapiens (Human), UniProt P09874); assay: In vitro Scintillation Proximity Assay (SPA) for PARP-1 inhibitory activity; assay type: biochemical; conditions: nicked DNA activated PARP-1, [3H]-NAD+, biotinylated histones
Method: C.1.In Vitro Scintillation Proximity Assay (SPA) for PARP-1 Inhibitory Activity
Compounds of the present invention were tested in an in vitro assay based on SPA technology (proprietary to GE healthcare).
In principle, the assay relies upon the well established SPA technology for the detection of poly(ADP-ribosyl)ation of biotinylated target proteins, i.e histones. This ribosylation is induced using nicked DNA activated PARP-1 enzyme and [^3H]-nicotinamide adenine dinucleotide ([^3H]-NAD^+) as ADP-ribosyl donor.
Histones (type II-A, supplier: Sigma) were biotinylated using the biotinylation kit of Amersham and stored aliquoted at −20° C. A stock solution of 100 mg/ml SPA poly(vinyl toluene) (PVT) beads (supplier: Amersham) was made in PBS. A stock solution of 61.6 nM […] was made by adding [^3H]-NAD^+ (0.1 mCi/ml, supplier: Perkin Elmer) to incubation buffer (50 mM Tris/HCl, pH 8; 0.2 mM DTT; 4 mM MgCl2). A solution of 4 mM NAD^+ (supplier: Sigma) was made. Human PARP-1 enzyme was obtained from Trevigen. Biotinylated histones and PVT-SPA beads were mixed and pre-incubated for 30 minutes at room temperature. PARP-1 enzyme (concentration was lot dependent) was mixed with the nicked DNA and the mixture was pre-incubated for 30 minutes at 4° C. Equal parts of this histones/PVT-SPA beads solution and PARP-1 enzyme/DNA solution were mixed and 75 μl of this mixture together with 1 μl of compound in DMSO and 25 μl of [^3H]-NAD^+was added per well into a 96-well microtiterplate. The final concentrations in the incubation mixture were 2 μg/ml for the biotinylated histones, 2 mg/ml for the PVT-SPA beads, 0.25 μg/ml for the nicked DNA and between 0.1-0.2 μg/ml for the PARP-1 enzyme. After incubation of the mixture for 20 minutes at room temperature, the reaction was terminated by adding 100 μl of 4 mM NAD^+ in water (final concentration 2 mM) and plates were mixed. The beads were sedimented by centrifugation (10 min, 800 rpm) and plates transferred to a TopCountNXT™ (Packard) for scintillation counting, values were expressed as counts per minute (cpm). For each experiment, controls (containing PARP-1 enzyme and DMSO without compound), a blank incubation (containing DMSO but no PARP-1 enzyme, no DNA or compound) and samples (containing PARP-1 enzyme, DNA and compound dissolved in DMSO) were run in parallel. All compounds tested were dissolved and eventually further diluted in DMSO. A dose-response curve was made wherein the compounds were tested at concentrations between 10^−5M and 3×10^−9M. In each test, the blank value was subtracted from both the control and the sample values. The control sample represented maximal PARP-1 enzyme activity. For each sample, the amount of cpm was expressed as a percentage of the mean cpm value of the controls. […] Herein the effects of test compounds are expressed as pIC50 (the negative log value of the IC50-value). As a reference compound, 4-amino-1,8-naphthalimide was included to validate the SPA assay.

Chain of Human PARP-1 enzyme (P09874 whole entry): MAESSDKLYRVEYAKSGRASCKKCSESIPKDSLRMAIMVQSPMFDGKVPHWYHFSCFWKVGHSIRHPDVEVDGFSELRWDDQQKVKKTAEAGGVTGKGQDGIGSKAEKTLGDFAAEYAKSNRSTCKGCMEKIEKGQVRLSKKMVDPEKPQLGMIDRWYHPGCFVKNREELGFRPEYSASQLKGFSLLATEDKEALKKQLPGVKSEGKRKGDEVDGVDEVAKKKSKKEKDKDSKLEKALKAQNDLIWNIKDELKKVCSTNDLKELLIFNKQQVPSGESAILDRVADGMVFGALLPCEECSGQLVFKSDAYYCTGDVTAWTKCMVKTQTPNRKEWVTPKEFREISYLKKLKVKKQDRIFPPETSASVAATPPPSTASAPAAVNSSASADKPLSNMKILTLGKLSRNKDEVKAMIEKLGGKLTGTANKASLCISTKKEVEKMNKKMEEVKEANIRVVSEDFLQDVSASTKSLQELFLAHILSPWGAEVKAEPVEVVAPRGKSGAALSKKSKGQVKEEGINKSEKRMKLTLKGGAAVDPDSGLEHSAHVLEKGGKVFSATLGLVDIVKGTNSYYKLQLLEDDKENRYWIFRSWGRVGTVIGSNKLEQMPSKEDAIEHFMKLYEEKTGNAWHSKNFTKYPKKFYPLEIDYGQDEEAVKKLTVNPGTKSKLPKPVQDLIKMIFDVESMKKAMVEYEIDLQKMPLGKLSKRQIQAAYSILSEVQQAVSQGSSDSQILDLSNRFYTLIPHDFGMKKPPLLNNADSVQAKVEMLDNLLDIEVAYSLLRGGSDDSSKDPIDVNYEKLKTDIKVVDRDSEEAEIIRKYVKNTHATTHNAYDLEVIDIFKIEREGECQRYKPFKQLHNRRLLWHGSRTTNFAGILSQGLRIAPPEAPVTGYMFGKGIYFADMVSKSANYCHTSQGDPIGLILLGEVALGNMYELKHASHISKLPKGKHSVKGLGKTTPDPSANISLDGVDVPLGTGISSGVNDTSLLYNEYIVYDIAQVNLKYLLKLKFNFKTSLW
Chain of TANK-2 enzyme (Q9H2K2 whole entry): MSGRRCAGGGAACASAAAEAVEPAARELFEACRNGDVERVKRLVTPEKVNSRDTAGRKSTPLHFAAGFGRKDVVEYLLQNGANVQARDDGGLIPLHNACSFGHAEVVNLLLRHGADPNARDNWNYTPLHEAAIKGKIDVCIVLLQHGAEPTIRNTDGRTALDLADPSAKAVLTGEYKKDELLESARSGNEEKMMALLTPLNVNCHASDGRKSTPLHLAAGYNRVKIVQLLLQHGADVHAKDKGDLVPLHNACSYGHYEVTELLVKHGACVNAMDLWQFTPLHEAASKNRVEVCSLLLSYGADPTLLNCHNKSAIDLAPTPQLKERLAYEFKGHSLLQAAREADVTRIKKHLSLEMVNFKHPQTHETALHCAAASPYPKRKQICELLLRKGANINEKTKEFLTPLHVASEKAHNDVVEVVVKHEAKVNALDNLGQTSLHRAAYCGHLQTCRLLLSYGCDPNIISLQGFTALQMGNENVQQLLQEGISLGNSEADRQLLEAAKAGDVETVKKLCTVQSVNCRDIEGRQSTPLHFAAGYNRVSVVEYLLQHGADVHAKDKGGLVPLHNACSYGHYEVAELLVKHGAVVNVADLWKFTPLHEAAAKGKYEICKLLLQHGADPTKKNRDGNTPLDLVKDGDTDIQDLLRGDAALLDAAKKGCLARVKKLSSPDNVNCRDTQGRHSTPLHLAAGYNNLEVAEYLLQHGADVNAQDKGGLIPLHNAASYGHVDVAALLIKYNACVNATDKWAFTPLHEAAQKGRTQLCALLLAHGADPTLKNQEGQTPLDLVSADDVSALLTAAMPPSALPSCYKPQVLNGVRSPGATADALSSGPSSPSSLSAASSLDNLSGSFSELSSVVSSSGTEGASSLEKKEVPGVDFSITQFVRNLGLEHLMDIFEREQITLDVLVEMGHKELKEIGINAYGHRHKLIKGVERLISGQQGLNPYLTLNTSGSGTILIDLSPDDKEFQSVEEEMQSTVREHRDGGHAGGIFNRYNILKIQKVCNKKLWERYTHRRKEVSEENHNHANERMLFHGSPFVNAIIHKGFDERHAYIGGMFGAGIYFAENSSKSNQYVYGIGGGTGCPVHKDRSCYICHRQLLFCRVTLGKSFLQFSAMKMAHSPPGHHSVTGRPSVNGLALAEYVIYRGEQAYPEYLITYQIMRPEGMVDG

CC(C#N)(Cc1ccccc1)c1ccc2c3c(c(=O)[nH]c2c1)CCCC3 (stereo not drawn) [Co. No. 1]
in vitro SPA assay TANK-2 pIC50 (TANK-2 enzyme): 7.85 | in vitro SPA assay PARP-1 pIC50 (Human PARP-1 enzyme): 7.44

CC(C#N)(Cc1cccc(F)c1)c1ccc2c3c(c(=O)[nH]c2c1)CCCC3 (stereo not drawn) [Co. No. 5]
in vitro SPA assay TANK-2 pIC50 (TANK-2 enzyme): 7.71 | in vitro SPA assay PARP-1 pIC50 (Human PARP-1 enzyme): 9.01

CC(C#N)(CCOc1ccc(C#N)cc1)c1ccc2c3c(c(=O)[nH]c2c1)CCCC3 (stereo not drawn) [Co. No. 17]
in vitro SPA assay TANK-2 pIC50 (TANK-2 enzyme): 7.28 | in vitro SPA assay PARP-1 pIC50 (Human PARP-1 enzyme): 7.35

CC(C#N)(Cc1cccc(Cl)c1)c1ccc2c3c(c(=O)[nH]c2c1)CCCC3 (stereo not drawn) [Co. No. 8]
in vitro SPA assay TANK-2 pIC50 (TANK-2 enzyme): 7.28 | in vitro SPA assay PARP-1 pIC50 (Human PARP-1 enzyme): 7.08

CC(C#N)(Cc1cccc(C#N)n1)c1ccc2c3c(c(=O)[nH]c2c1)CCCC3 (stereo not drawn) [Co. No. 7]
in vitro SPA assay TANK-2 pIC50 (TANK-2 enzyme): 8.02 | in vitro SPA assay PARP-1 pIC50 (Human PARP-1 enzyme): 8.38

CC(C#N)(Cc1cccc(C#N)c1)c1ccc2c3c(c(=O)[nH]c2c1)CCCC3 (stereo not drawn) [Co. No. 4]
in vitro SPA assay TANK-2 pIC50 (TANK-2 enzyme): 7.76 | in vitro SPA assay PARP-1 pIC50 (Human PARP-1 enzyme): 9.03
